What was measured:
[1] = tested on: neural progenitor cells (NPCs); assay: Oligodendrocyte differentiation (NG2, RIP, GalC) of NPCs co-cultured with activated microglia; type: cell-based, mouse; conditions: 5 days, presence of insulin
Experimental: (iii) Neural progenitor cell (NPC) culture. Coronal sections (2 mm thick) of tissue containing the subventricular zone of the lateral ventricle were obtained from the brains of adult C57B16/J mice. The tissue was minced and then incubated for digestion at 37° C., 5% CO2 for 45 min in Earle's balanced salt solution containing 0.94 mg/ml papain (Worthington, Lakewood, N.J.) and 0.18 mg/ml of L-cysteine and EDTA. After centrifugation at 110×g for 15 min at room temperature, the tissue was mechanically dissociated by pipette trituration. Cells obtained from single-cell suspensions were plated (3500 cells/cm^2) in 75-cm^2 Falcon tissue-culture flasks (BD Biosciences, Franklin Lakes, N.J.), in NPC-culturing medium [Dulbecco's modified Eagles's medium (DMEM)/F12 medium (Gibco/Invitrogen, Carlsbad, Calif.) containing 2 mM L-glutamine, 0.6% glucose, 9.6 μg/ml putrescine, 6.3 ng/ml progesterone, 5.2 ng/ml sodium selenite, 0.02 mg/ml insulin, 0.1 mg/ml transferrin, 2 μg/ml heparin (all from Sigma-Aldrich, Rehovot, Israel), fibroblast growth factor-2 (human recombinant, 20 ng/ml), and epidermal growth factor (human recombinant, 20 ng/ml; both from Peprotech, Rocky Hill, N.J.)]. Spheres were passaged every 4-6 days and replated as single cells. Green fluorescent protein (GFP)-expressing neural progenitor cells (NPCs) were obtained as previously described (Pluchino et al., 2003). […]

[2] = tested on: neural progenitor cells (NPCs); assay: Neuronal differentiation of GFP-expressing NPCs co-cultured with differently activated microglia; type: cell-based, mouse; conditions: absence of microglia, insulin 0.02 mg/ml
Experimental: (iii) Neural progenitor cell (NPC) culture. Coronal sections (2 mm thick) of tissue containing the subventricular zone of the lateral ventricle were obtained from the brains of adult C57B16/J mice. […] After centrifugation at 110×g for 15 min at room temperature, the tissue was mechanically dissociated by pipette trituration. […] Cell proliferation rates and cell survival in vitro were determined by staining with 5-bromo-2′-deoxyuridine (BrdU, 2.5 μM; Sigma-Aldrich, St. Louis). For quantification of live and dead cells, live cultures were stained with 1 μg/ml propidium iodide (Molecular Probes, Invitrogen, Carlsbad, Calif.) and 1 μg/ml Hoechst 33342 (Sigma-Aldrich, St. Louis), and cells were counted using Image-Pro (Media Cybernetics, Silver Spring, Md.), as described (Hsieh et al., 2004) (vi) Immunocytochemistry. […]

insulin: insulin added to differentiation medium (0.02 mg/ml)
NG2+ cells [1]: did not affect the incidence of NG2^+ cells | numbers of GFP+/β-III-tubulin+ cells in NPC cultures [2]: did not increase
